What is called IC50 is the concentration needed to halve the response being measured. Low values mean greater potency, high ones weaker potency.

IC50 data for one compound are collected here from publication PMC9821969, “Metabolomic Strategy to Characterize the Profile of Secondary Metabolites in Aspergillus aculeatus DL1011 Regulated by Chemical Epigenetic Agents” (Molecules, 2022).

For this experiment, the target named is T1, SHP1 (Homo sapiens, UniProt P29350).
T1 construct: gene PTPN6; domain protein
T1 sequence (P29350 244-515 limits assumed): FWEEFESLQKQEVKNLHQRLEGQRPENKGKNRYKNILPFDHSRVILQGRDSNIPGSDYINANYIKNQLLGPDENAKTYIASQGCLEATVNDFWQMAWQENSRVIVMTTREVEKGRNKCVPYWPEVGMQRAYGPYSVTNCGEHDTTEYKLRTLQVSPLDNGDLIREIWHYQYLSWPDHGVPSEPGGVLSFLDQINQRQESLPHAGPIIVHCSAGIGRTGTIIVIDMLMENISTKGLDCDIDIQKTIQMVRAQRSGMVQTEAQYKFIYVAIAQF
Put plainly: pNPP phosphatase assay, absorbance at […] nm. The class given is biochemical.

Structures are written as SMILES.

With `CO[C@@]1(C)[C@H](O)C(=O)C(C)=C(O)[C@@H]1Oc1c(C)c(O)cc(C)c1C(=O)O` [S10, Roseopurpurin A], the IC50 turned out to be 16 µM.
